Laboratory results taken from US12390441B2, “Immunomodulating o-het/aryl azalides” (Zoetis Services LLC, priority 2020, dated 2025).

Tests used:
[1] = system: TNF-α; assay: Whole blood assay, LPS stimulation, MSD cytokine detection; format: cell-based; details: Bos taurus, fresh whole bovine blood
[2] = system: IL-1β; assay: as above; format: cell-based, bovine; details: fresh whole bovine blood, LPS stimulation; drug concentration giving overstimulation (OS) of IL-1β
[3] = system: P. multocida 46572; assay: In vivo mouse lung infection challenge model (murine); parameters: species or system CD-1 female mice
Experimental: The challenge organism was P. multocida 46572. Target challenge concentration was 5×10^2 CFU/mouse. Isolated colonies from overnight growth (37° C. with 5% CO2) on trypticase soy agar (TSA II) blood plates were transferred to room temperature Brain Heart Infusion Broth (BHIB). The broth culture was incubated 3.5-4 hours to approximately mid-log phase of growth, as measured by forward light scatter at 600 nm (OD600, 0.200). The culture was centrifuged to collect the bacterial pellet. The pellet was re-suspended in BHIB and adjusted to provide an approximate concentration of 2.7 log^10 colony forming units (CFU) in 0.04 mL at the highest concentration. The challenge inoculum concentration was confirmed by serial dilutions of the inoculum for CFU enumeration. On Day −5, CD-1 female mice were received. Mice were given standard rodent diet and water ad libitum. On Day 0, bacterial inoculum (0.04 mL) was administered to each mouse (n=36) intranasally. Compounds of the invention were dosed at 20 mg/kg (0.1 mL) in a buffered (˜pH 5.4) propylene glycol, monothioglycerol and water solution by subcutaneous injection. Animals were observed from Days 1-10. The study was terminated on Day 10. In addition, some treatment groups were sampled at 6, 24, and 48 hours post bacterial challenge for RNA sequence analysis of lung tissue.
The murine efficacy model (P. multocida challenge) was optimized, and the treatment group size was powered to be able to observe statistically significant improvement of survival to expected ranges for immunomodulatory compounds. The experimental design was a randomized complete block design. Mice were individually identified and treatment groups comingled within a cage, with every treatment group equally represented across cages. Mortality was the primary variable. Mortality data was analyzed using a generalized mixed model with fixed effect of treatment and random effect of block. Survival time was also analyzed using the SAS PHREG (survival analysis) procedure to examine whether there were significant differences between treatment groups and the control group. Numerous compounds of the invention and M9 (positive control) were tested in this model at a dose of 20 mg/kg (Table 3). Typical percent survival for no treatment control is in the range of 0-20% based on study to study variation in challenge inoculum and rate of infection. […] Mouse survival for M9 was about 90-100%, further supporting its residual antibacterial properties against the bacterial strain. Harmonized survival accounts for % survival relative to vehicle (“−” control) and M9 (“+” control)) survival data (Table 3).

[4] = harmonized survival relative to vehicle and M9, 20 mg/kg subcutaneous, Day 10

SMILES | IC50 [1] [µM] | IL-1ß OS of LPS [2] [µM] | % Survival ([3]; 46572, sc, 20 mg/kg, 240 h) [%] | % Survival [3, 4] [%]
CC[C@H]1OC(=O)[C@H](C)[C@@H](O[C@H]2C[C@@](C)(OC)[C@@H](O)[C@H](C)O2)[C@H](C)[C@@H](O[C@@H]2O[C@H](C)C[C@H](NC)[C@H]2Oc2ccccc2)[C@](C)(O)C[C@@H](C)CN(C)[C@H](C)[C@@H](O)[C@]1(C)O [Example A-26, (2R,3S,4R,5R,8R,10R,11R,12S,13S,14R)-2-ethyl-3,4,10-trihydroxy-13-(((2R,4R,5S,6S)-5-hydroxy-4-methoxy-4,6-dimethyltetrahydro-2H-pyran-2-yl)oxy)-3,5,6,8,10,12,14-heptamethyl-11-(((2S,3R,4S,6R)-6-methyl-4-(methylamino)-3-phenoxytetrahydro-2H-pyran-2-yl)oxy)-1-oxa-6-azacyclopentadecan-15-one] | 20 | 16 | 1 | 
CC[C@H]1OC(=O)[C@H](C)[C@@H](O)[C@H](C)[C@@H](O[C@@H]2O[C@H](C)C[C@H](N(C)C(=O)N(C)c3ccccc3)[C@H]2Oc2ccccc2)[C@](C)(O)C[C@@H](C)CN(C)[C@H](C)[C@@H](O)[C@]1(C)O [Example C-12, 1-((2S,3R,4S,6R)-2-(((2R,3S,4R,5R,8R,10R,11R,12S,13S,14R)-2-ethyl-3,4,10,13-tetrahydroxy-3,5,6,8,10,12,14-heptamethyl-15-oxo-1-oxa-6-azacyclopentadecan-11-yl)oxy)-6-methyl-3-phenoxytetrahydro-2H-pyran-4-yl)-1,3-dimethyl-3-phenylurea] |  |  | 12 | 
CC[C@H]1OC(=O)[C@H](C)[C@@H](O)[C@H](C)[C@@H](O[C@@H]2O[C@H](C)C[C@H](N(C)C(=O)N(C)c3cc(C)n(C)n3)[C@H]2Oc2ccccc2)[C@](C)(O)C[C@@H](C)CN[C@H](C)[C@@H](O)[C@]1(C)O [Example C-26, 1-(1,5-dimethyl-1H-pyrazol-3-yl)-3-((2S,3R,4S,6R)-2-(((2R,3S,4R,5R,8R,10R,11R,12S,13S,14R)-2-ethyl-3,4,10,13-tetrahydroxy-3,5,8,10,12,14-hexamethyl-15-oxo-1-oxa-6-azacyclopentadecan-11-yl)oxy)-6-methyl-3-phenoxytetrahydro-2H-pyran-4-yl)-1,3-dimethylurea] |  |  | 8 | 
CC[C@H]1OC(=O)[C@H](C)[C@@H](O)[C@H](C)[C@@H](O[C@@H]2O[C@H](C)C[C@H](N(C)C(=O)N(C)c3cc(C)n(C)n3)[C@H]2Oc2ccccc2)[C@](C)(O)C[C@@H](C)CN(C)[C@H](C)[C@@H](O)[C@]1(C)O [Example C-30, 1-(1,5-dimethyl-1H-pyrazol-3-yl)-3-((2S,3R,4S,6R)-2-(((2R,3S,4R,5R,8R,10R,11R,12S,13S,14R)-2-ethyl-3,4,10,13-tetrahydroxy-3,5,6,8,10,12,14-heptamethyl-15-oxo-1-oxa-6-azacyclopentadecan-11-yl)oxy)-6-methyl-3-phenoxytetrahydro-2H-pyran-4-yl)-1,3-dimethylurea] |  |  | 0 | 
CCCNC[C@]1(O)[C@H](C)O[C@@H](O[C@H]2[C@H](C)[C@@H](O[C@@H]3O[C@H](C)C[C@H](N(C)C)[C@H]3Oc3ccccc3)[C@](C)(O)C[C@@H](C)CN[C@H](C)[C@@H](O)[C@](C)(O)[C@@H](CC)OC(=O)[C@@H]2C)C[C@@]1(C)OC [Example E-3, (2R,3S,4R,5R,8R,10R,11R,12S,13S,14R)-11-(((2S,3R,4S,6R)-4-(dimethylamino)-6-methyl-3-phenoxytetrahydro-2H-pyran-2-yl)oxy)-2-ethyl-3,4,10-trihydroxy-13-(((2R,4R,5S,6S)-5-hydroxy-4-methoxy-4,6-dimethyl-5-((propylamino)methyl)tetrahydro-2H-pyran-2-yl)oxy)-3,5,8,10,12,14-hexamethyl-1-oxa-6-azacyclopentadecan-15-one] | 8 | 13 | 37 | 
CCCNC[C@]1(O)[C@H](C)O[C@@H](O[C@H]2[C@H](C)[C@@H](O[C@@H]3O[C@H](C)C[C@H](NC)[C@H]3Oc3ncc(Cl)cn3)[C@](C)(O)C[C@@H](C)CN[C@H](C)[C@@H](O)[C@](C)(O)[C@@H](CC)OC(=O)[C@@H]2C)C[C@@]1(C)OC [Example E-30, (2R,3S,4R,5R,8R,10R,11R,12S,13S,14R)-11-(((2S,3R,4S,6R)-3-((5-chloropyrimidin-2-yl)oxy)-6-methyl-4-(methylamino)tetrahydro-2H-pyran-2-yl)oxy)-2-ethyl-3,4,10-trihydroxy-13-(((2R,4R,5S,6S)-5-hydroxy-4-methoxy-4,6-dimethyl-5-((propylamino)methyl)tetrahydro-2H-pyran-2-yl)oxy)-3,5,8,10,12,14-hexamethyl-1-oxa-6-azacyclopentadecan-15-one] | 7 | 13 | 22 | 
CCCNC[C@]1(O)[C@H](C)O[C@@H](O[C@H]2[C@H](C)[C@@H](O[C@@H]3O[C@H](C)C[C@H](N(C)C(=O)N(C)c4cc(C)n(C)n4)[C@H]3Oc3ccccc3)[C@](C)(O)C[C@@H](C)CN[C@H](C)[C@@H](O)[C@](C)(O)[C@@H](CC)OC(=O)[C@@H]2C)C[C@@]1(C)OC [Example F-19, 1-(1,5-dimethyl-1H-pyrazol-3-yl)-3-((2S,3R,4S,6R)-2-(((2R,3S,4R,5R,8R,10R,11R,12S,13S,14R)-2-ethyl-3,4,10-trihydroxy-13-(((2R,4R,5S,6S)-5-hydroxy-4-methoxy-4,6-dimethyl-5-((propylamino)methyl)tetrahydro-2H-pyran-2-yl)oxy)-3,5,8,10,12,14-hexamethyl-15-oxo-1-oxa-6-azacyclopentadecan-11-yl)oxy)-6-methyl-3-phenoxytetrahydro-2H-pyran-4-yl)-1,3-dimethylurea] |  |  | 35 | 
CC[C@H]1OC(=O)[C@H](C)[C@@H](O[C@H]2C[C@@](C)(OC)[C@](O)(CN3CCOCC3)[C@H](C)O2)[C@H](C)[C@@H](O[C@@H]2O[C@H](C)C[C@H](N(C)C)[C@H]2Oc2ccccc2)[C@](C)(O)C[C@@H](C)CN[C@H](C)[C@@H](O)[C@]1(C)O [Example H-3, (2R,3S,4R,5R,8R,10R,11R,12S,13S,14R)-11-(((2S,3R,4S,6R)-4-(dimethylamino)-6-methyl-3-phenoxytetrahydro-2H-pyran-2-yl)oxy)-2-ethyl-3,4,10-trihydroxy-13-(((2R,4R,5S,6S)-5-hydroxy-4-methoxy-4,6-dimethyl-5-(morpholinomethyl)tetrahydro-2H-pyran-2-yl)oxy)-3,5,8,10,12,14-hexamethyl-1-oxa-6-azacyclopentadecan-15-one] |  |  | 8 | 
CCCNC[C@]1(O)[C@H](C)O[C@@H](O[C@H]2[C@H](C)[C@@H](O[C@@H]3O[C@H](C)C[C@H](N(C)C(=O)N(C)c4ccccc4)[C@H]3O)[C@](C)(O)C[C@@H](C)CN[C@H](C)[C@@H](O)[C@](C)(O)[C@@H](CC)OC(=O)[C@@H]2C)C[C@@]1(C)OC [Example H-11] |  |  |  | 36
CCCNC[C@]1(O)[C@H](C)O[C@@H](O[C@H]2[C@H](C)[C@@H](O[C@@H]3O[C@H](C)C[C@H](N(C)C(=O)N(C)c4ccc(C(F)(F)F)cc4)[C@H]3O)[C@](C)(O)C[C@@H](C)CN[C@H](C)[C@@H](O)[C@](C)(O)[C@@H](CC)OC(=O)[C@@H]2C)C[C@@]1(C)OC [Example H-13] |  |  |  | 59
CCCNC[C@]1(O)[C@H](C)O[C@@H](O[C@H]2[C@H](C)[C@@H](O[C@@H]3O[C@H](C)C[C@H](N(C)C(=O)N(c4ccccc4)c4ccccc4)[C@H]3O)[C@](C)(O)C[C@@H](C)CN[C@H](C)[C@@H](O)[C@](C)(O)[C@@H](CC)OC(=O)[C@@H]2C)C[C@@]1(C)OC [Example H-39] |  |  |  | 44
CCCNC[C@]1(O)[C@H](C)O[C@@H](O[C@H]2[C@H](C)[C@@H](O[C@@H]3O[C@H](C)C[C@H](N(Cc4nccs4)C(=O)N(C)c4ccccc4)[C@H]3O)[C@](C)(O)C[C@@H](C)CN[C@H](C)[C@@H](O)[C@](C)(O)[C@@H](CC)OC(=O)[C@@H]2C)C[C@@]1(C)OC [Example H-64] |  |  |  | 0
